According to the CheMixHub viscosity set:
± gives the uncertainty stated by the source.

Assay: xn = mol fraction of the nth substance listed

CCCCCCC + CCCCO
viscosity [mPa·s]
Conditions	298.15 K	308.15 K
100 kPa, x2 = 0.1602	0.4667 ± 0.013	–
100 kPa, x2 = 0.3421	0.6085 ± 0.017	–
100 kPa, x2 = 0.5006	0.8545 ± 0.023	–
100 kPa, x2 = 0.6598	1.191 ± 0.032	–
100 kPa, x2 = 0.8398	1.747 ± 0.048	–
101.33 kPa, x2 = 0.077	0.421 ± 0.0045	0.3698 ± 0.0043
101.33 kPa, x2 = 0.1523	0.456 ± 0.0047	0.392 ± 0.0044
101.33 kPa, x2 = 0.2853	0.5468 ± 0.0053	0.4571 ± 0.0048
101.33 kPa, x2 = 0.4094	0.667 ± 0.006	0.5432 ± 0.0054
101.33 kPa, x2 = 0.5024	0.787 ± 0.0069	0.6232 ± 0.0059
101.33 kPa, x2 = 0.6136	0.9824 ± 0.0082	0.7769 ± 0.007
101.33 kPa, x2 = 0.7055	1.204 ± 0.0097	0.9444 ± 0.0083
101.33 kPa, x2 = 0.7866	1.453 ± 0.012	1.136 ± 0.0097
101.33 kPa, x2 = 0.8595	1.751 ± 0.014	1.363 ± 0.012
101.33 kPa, x2 = 0.8998	1.942 ± 0.015	1.515 ± 0.013
101.33 kPa, x2 = 0.9352	2.144 ± 0.017	1.666 ± 0.014
101.33 kPa, x2 = 0.9675	2.342 ± 0.018	1.821 ± 0.016

CCCCCCCC + Cc1ccccc1
303.15 K, 101.33 kPa
Conditions	viscosity [mPa·s]
x2 = 0.2634	0.47 ± 0.095
x2 = 0.4184	0.464 ± 0.094
x2 = 0.8282	0.485 ± 0.098
x2 = 0.888	0.498 ± 0.1
x2 = 0.9417	0.508 ± 0.1

CCCCCCCCCCCCCC + CCCOC(C)=O
298.15 K, 101.33 kPa
Conditions	viscosity [mPa·s]
x1 = 0.066	0.605 ± 0.006
x1 = 0.0941	0.632 ± 0.006
x1 = 0.1299	0.673 ± 0.007
x1 = 0.1877	0.734 ± 0.007
x1 = 0.2573	0.815 ± 0.008
x1 = 0.3129	0.88 ± 0.008
x1 = 0.4379	1.045 ± 0.01
x1 = 0.5495	1.204 ± 0.011
x1 = 0.6576	1.369 ± 0.013
x1 = 0.8073	1.631 ± 0.015
x1 = 0.8924	1.814 ± 0.016

O=[N+]([O-])c1ccccc1 + CCO
viscosity [mPa·s], 101.33 kPa
Conditions	x1 = 0.0399	x1 = 0.0856	x1 = 0.1382	x1 = 0.1997	x1 = 0.2723	x1 = 0.3595	x1 = 0.4661	x1 = 0.5995	x1 = 0.7711
298.15 K	1.06 ± 0.052	1.048 ± 0.051	1.061 ± 0.052	1.073 ± 0.053	1.116 ± 0.054	1.166 ± 0.056	1.201 ± 0.058	1.317 ± 0.063	1.44 ± 0.068
303.15 K	0.9662 ± 0.048	0.9579 ± 0.048	0.9691 ± 0.048	0.9809 ± 0.049	1.01 ± 0.05	1.068 ± 0.052	1.085 ± 0.053	1.207 ± 0.058	1.312 ± 0.063

CC12CC3CC(C)(C1)CC(C)(C3)C2 + CCCCCCCCCCC
viscosity [mPa·s], 100 kPa
Conditions	x1 = 0.1004	x1 = 0.1998	x1 = 0.3004	x1 = 0.4006	x1 = 0.4992	x1 = 0.6045	x1 = 0.7008	x1 = 0.8138	x1 = 0.9014
293.15 K	1.267 ± 0.052	1.341 ± 0.055	1.419 ± 0.058	1.514 ± 0.062	1.628 ± 0.066	1.772 ± 0.072	1.935 ± 0.079	2.161 ± 0.088	2.369 ± 0.096
298.15 K	1.16 ± 0.047	1.227 ± 0.05	1.294 ± 0.053	1.374 ± 0.056	1.47 ± 0.06	1.595 ± 0.065	1.737 ± 0.071	1.939 ± 0.079	2.134 ± 0.087
303.15 K	1.071 ± 0.044	1.121 ± 0.046	1.187 ± 0.048	1.264 ± 0.051	1.351 ± 0.055	1.463 ± 0.06	1.589 ± 0.065	1.762 ± 0.072	1.926 ± 0.078
308.15 K	0.987 ± 0.04	1.038 ± 0.042	1.095 ± 0.045	1.165 ± 0.047	1.246 ± 0.051	1.348 ± 0.055	1.46 ± 0.059	1.612 ± 0.066	1.76 ± 0.072
313.15 K	0.92 ± 0.037	0.965 ± 0.039	1.019 ± 0.041	1.083 ± 0.044	1.152 ± 0.047	1.241 ± 0.05	1.34 ± 0.055	1.475 ± 0.06	1.605 ± 0.065
318.15 K	0.86 ± 0.035	0.9 ± 0.037	0.948 ± 0.039	1.006 ± 0.041	1.073 ± 0.044	1.155 ± 0.047	1.245 ± 0.051	1.369 ± 0.056	1.48 ± 0.06
323.15 K	0.802 ± 0.033	0.843 ± 0.034	0.889 ± 0.036	0.943 ± 0.038	1.001 ± 0.041	1.073 ± 0.044	1.153 ± 0.047	1.261 ± 0.051	1.362 ± 0.055

ClC(Cl)=C(Cl)Cl + CC(C)CO
303.15 K, 101.33 kPa
Conditions	viscosity [mPa·s]
x1 = 0.1124	2.28 ± 0.014
x1 = 0.2157	1.855 ± 0.012
x1 = 0.3156	1.552 ± 0.01
x1 = 0.4057	1.353 ± 0.009
x1 = 0.5099	1.182 ± 0.008
x1 = 0.5996	1.077 ± 0.007
x1 = 0.7145	0.977 ± 0.007
x1 = 0.8032	0.918 ± 0.006
x1 = 0.908	0.857 ± 0.006
